Source: ChEMBL document CHEMBL3045983, “Ajugatakasins A and B, New Diterpenoids fromAjuga decumbens, and Feeding Stimulative Activity of Related Neoclerodane Analogs toward the Turnip Sawfly” (1997)

Assays:
Type in all cases: functional
Athalia rosae ruficornis [1] = experiment: Induction of feeding in larvae of Athalia rosae ruficornis on leaves of Ajuga decumbens assessed as feeding response measured for 10 seconds relative to control; parameters: concentration or dose not given beside the values
Athalia rosae ruficornis [2] = experiment: Induction of feeding in larvae of Athalia rosae ruficornis on leaves of Ajuga decumbens assessed as feeding response at 10 ug/64 mm'2 of filter paper measured for 10 seconds
Athalia rosae ruficornis [3] = experiment: Induction of feeding in larvae of Athalia rosae ruficornis on leaves of Ajuga decumbens assessed as feeding response at 0.1 ug/64 mm'2 of filter paper measured for 10 seconds

**Q.** What does the source list for `C/C=C(\C)C(=O)O[C@@H]1CC[C@]2(CO2)[C@]2(COC(C)=O)[C@@H](OC(C)=O)C[C@@H](C)[C@](C)(C[C@H](O)C3=CC(=O)OC3)[C@@H]12` [AJUGAMARIN A1]?
**A.** Activity (Athalia rosae ruficornis [1]): 46.3%; Activity (Athalia rosae ruficornis [2]): 0%; Activity (Athalia rosae ruficornis [3]): 0%

**Q.** Which results are given for `C/C=C(\C)C(=O)O[C@@H]1CC[C@]2(CO2)[C@]2(COC(C)=O)[C@@H](OC(C)=O)C[C@@H](C)[C@](C)(C[C@H](OC(=O)[C@@H](C)CC)C3=CC(=O)OC3)[C@@H]12` [AJUGAMARIN G1]?
**A.** Activity (Athalia rosae ruficornis [1]): 9.3%; Activity (Athalia rosae ruficornis [2]): 0%; Activity (Athalia rosae ruficornis [3]): 0%

**Q.** What does the source list for `C/C=C(\C)C(=O)O[C@@H](C[C@@]1(C)[C@H](C)C[C@H](OC(C)=O)[C@]2(COC(C)=O)[C@@H]1[C@H](OC(=O)[C@@H](C)CC)CC[C@]21CO1)C1=CC(=O)OC1` [AJUGAMARIN H1]?
**A.** Activity (Athalia rosae ruficornis [1]): 7%; Activity (Athalia rosae ruficornis [2]): 0%; Activity (Athalia rosae ruficornis [3]): 0%

**Q.** What does the source list for `C/C=C(\C)C(=O)O[C@@H](C[C@@]1(C)[C@H](C)C[C@H](OC(C)=O)[C@]2(COC(C)=O)[C@@H]1[C@H](OC(=O)/C(C)=C/C)CC[C@]21CO1)C1=CC(=O)OC1` [AJUGATAKASIN A]?
**A.** Activity (Athalia rosae ruficornis [1]): 28.4%; Activity (Athalia rosae ruficornis [2]): 0%; Activity (Athalia rosae ruficornis [3]): 0%

**Q.** `CC[C@H](C)C(=O)O[C@@H](C[C@@]1(C)[C@H](C)C[C@H](OC(C)=O)[C@]2(COC(C)=O)[C@@H]1[C@H](OC(=O)[C@@H](C)CC)CC[C@]21CO1)C1=CC(=O)OC1` [AJUGATAKASIN B] was tested. Which Activity (Athalia rosae ruficornis [1]) did it give?
**A.** 0.4%

**Q.** What about the Activity (Athalia rosae ruficornis [2]) of the same molecule?
**A.** 0%

**Q.** What about the Activity (Athalia rosae ruficornis [3]) of the same molecule?
**A.** 0%

**Q.** How did the Activity (Athalia rosae ruficornis [1]) turn out when `CC[C@H](C)C(=O)O[C@H]1[C@H](O)C[C@@H]2[C@@](C)([C@@H]3C[C@H]4C=CO[C@H]4O3)[C@H](C)C[C@H](OC(C)=O)[C@@]2(COC(C)=O)[C@@]12CO2` [CLERODENDRIN D] was run?
**A.** 0.08%

**Q.** What about the Activity (Athalia rosae ruficornis [2]) of the same molecule?
**A.** 100%

**Q.** And the Activity (Athalia rosae ruficornis [3])?
**A.** 88%

**Q.** What does the source list for `CCC(C)C(=O)O[C@@H]1CC[C@]2(CO2)[C@]2(COC(C)=O)[C@@H](OC(C)=O)C[C@@H](C)[C@](C)(C[C@H](O)C3=CC(=O)OC3)[C@@H]12` (stereo partly specified) [DIHYDROAJUGAMARIN]?
**A.** Activity (Athalia rosae ruficornis [1]): 8.6%; Activity (Athalia rosae ruficornis [2]): 0%; Activity (Athalia rosae ruficornis [3]): 0%
